Results on two compounds are retold here after patent publication US20160237146A1, “Methods of Preventing or Reducing Photoreceptor Cell Death” (MASSACHUSETTS EYE AND EAR INFIRMARY, priority 2013, published 2016).

“Also recorded” adds a separate entry of the source.

Assay [1] has as its system photoreceptor cell death in response to RD. Nature of the assay: Mouse model of retinal detachment, TUNEL labeling of the ONL. It is filed as in vivo, mice.
Experimental: Briefly, RD was created in the right eye of adult mice (8-12 weeks), as previously reported (Hisatomi, T. et al., Am J Pathol, 2001, 158:1271-1278), with minor modification. Briefly, mice were anesthetized using a mixture of ketamine (80 mg/kg) and xylazine (8 mg/kg). Deep anesthesia was confirmed by a toe pinch test. One drop of proparacaine hydrochloride (0.5%) (Akorn, 17478-263-12) was administered to each eye. A self-sealing scleral incision was made using a 30 G needle. Next, an anterior chamber puncture was performed from the cornea to reduce intraocular pressure. A 33 G needle attached to a Hamilton 10 μl syringe was inserted into the subretinal space, and 4 μl sodium hyaluronate (Provisc®, Alcon) was gently injected to enlarge the RD (fundus Image of a retinal detachment; FIG. 7A) (Matsumoto, H. et al., J Vis Exp, 2013, (79)). After the injection, glue (Webglue™) was put on the scleral wound and the conjunctiva reattached to the original position. Photoreceptor apoptosis was assessed (12-72 hours post detachment) by identifying TUNEL positive cells in cross sections (FIGS. 7C and D).
Twenty-four hours post-injury, retinas were isolated and cross-sections were prepared for staining with DAPI (a nuclear marker) and TUNEL (a cell death marker). The mid-point of the retinal arc between the optic nerve and the edge of the retina was quantified for TUNEL positive cells.
The model of retinal detachment was performed precisely as described above with one modification: Prior to injecting the provisc 1 μl of the purified C3 antibody (0.1 μg) or IgG2a isotype control (Life Technologies, 02-9688) was injected into the sub-retinal space through the scleral tunnel. The eyes were enucleated 24 hours after RD and processed for TUNEL labeling as described earlier.
The test system of the next assay is Fb. To be noted: retina 24 hours after RD, mice kept in 75% oxygen vs room air.

Experimental for Fb: RNA was isolated using an RNeasy micro kit (Qiagen, 74004, Valencia, Calif.) for LCM samples or an RNeasy mini kit (Qiagen, 74106, Valencia, Calif.) for whole retina. Total RNA was measured using a nanodrop spectrophotometer (Thermo Scientific, Nanodrop 2000, Waltham, Mass.) then each sample was normalized prior to transcribing cDNA. cDNA was transcribed using superscript III (Invitrogen, 18080-044, Carlsbad, Calif.) then one microliter of cDNA was used for each RTPCR reaction. […] Primers for Cd55 using photoreceptors isolated by LCM were obtained through Integrated DNA Technologies using their online Primer Quest design tool and importing the NCBI ID number for the sequence (Forward 5′-[sequence]-3′ (SEQ ID NO: 5) and Reverse 5′-[sequence]-3′ (SEQ ID NO: 6)). RTPCR was run in triplicate and the average of each CT value used for analysis. All CT values were normalized to beta actin from each sample as an internal control. Final values were determined using the MET method.
After 24 hours the mice were anesthetized under a heavy dose of avertin (2,2,2 tribromo ethanol, Sigma, T4, 840-2) at a working concentration of 10 mg/ml and injected at a dose of 0.25-0.5 mg/gram intraperitoneally. In one group the eyes were enucleated and frozen in OCT compound using isopropanol chilled by dry ice. The eyes were then processed for TUNEL labeling and quantified as described above. […]

Consider `O=O` [75% oxygen, oxygen], for which, in assay [1] (mice housed 24 hours after RD in a 75% oxygen chamber vs room air (approximately 21% oxygen)), the “cell death (TUNEL positive cells in the ONL)” value is reported as “significant reduction in cell death”. Also, in the assay with Fb, the “Fb expression, alternative pathway activation” value is “significantly less Fb expression”.
Regarding cobra venom factor [CVF], the “photoreceptor cell death (TUNEL positive cells in the ONL)” value in assay [1] (C3-/- mice, sub-retinal injection prior to Provisc, 24 hours after RD, vs PBS) is on record as “significant up-regulation of photoreceptor cell death; also recorded: increased photoreceptor cell death after RD”.
